Legend:
Heparanase = target: T1, Heparanase (Homo sapiens, UniProt Q9Y251); experiment: Inhibitory activity against heparanase from human platelets
T1 sequence (Q9Y251 whole entry): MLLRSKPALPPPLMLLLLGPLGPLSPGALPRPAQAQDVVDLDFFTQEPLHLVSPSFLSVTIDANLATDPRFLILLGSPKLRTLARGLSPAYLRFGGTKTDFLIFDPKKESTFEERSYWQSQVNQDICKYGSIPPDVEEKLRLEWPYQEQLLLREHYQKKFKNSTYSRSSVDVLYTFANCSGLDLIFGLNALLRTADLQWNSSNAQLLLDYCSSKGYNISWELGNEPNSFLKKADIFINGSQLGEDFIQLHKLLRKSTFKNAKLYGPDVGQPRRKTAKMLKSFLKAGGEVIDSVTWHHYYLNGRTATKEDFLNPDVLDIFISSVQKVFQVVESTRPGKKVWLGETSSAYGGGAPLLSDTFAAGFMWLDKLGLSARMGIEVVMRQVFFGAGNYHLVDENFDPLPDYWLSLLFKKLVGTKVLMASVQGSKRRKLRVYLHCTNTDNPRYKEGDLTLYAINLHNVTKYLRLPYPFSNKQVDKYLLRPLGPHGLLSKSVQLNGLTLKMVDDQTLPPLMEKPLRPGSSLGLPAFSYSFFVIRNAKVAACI

[1] = Plasma concentration in mice after 1 hr of administration of 50 mg/kg, ip; format: ADME, organism-based; set-up: dose 50 mg/kg, route intraperitoneal; settings: mouse
[2] = Plasma concentration in mice after 4 hrs of administration of 50 mg/kg, ip; format: ADME, organism-based; set-up: dose 50 mg/kg, route intraperitoneal; settings: mouse
[3] = target: T2, Heparanase (Homo sapiens) (UniProt Q9Y251); experiment: Inhibitory activity against heparanase from human platelets at 25 uM
T2 sequence (whole entry): T1 sequence (Q9Y251 whole entry)

[4] = target: T2, Heparanase (Homo sapiens); experiment: Inhibitory activity against heparanase from human platelets at 0.83 uM
[5] = Plasma concentration in mice after 1 hr of administration of 30 mg/kg, po; format: ADME, organism-based; set-up: dose 30 mg/kg, route oral; settings: mouse
[6] = Plasma concentration in mice after 4 hrs of administration of 30 mg/kg, po; format: ADME, organism-based; set-up: dose 30 mg/kg, route oral; settings: mouse

Q: With `COc1ccc(CC(=O)Nc2ccc(-c3nc4ccccc4[nH]3)cc2)cc1Br` as the molecule, how does the IC50 (Heparanase) read?
A: The IC50 was greater than 15 µM.

Q: Which concentration at 1 h [1] does the source give for `CCOc1ccc(C(=O)Nc2ccc(-c3nc4ccccc4[nH]3)cc2)cc1Br` here?
A: The concentration at 1 h was 530 nM.

Q: And the concentration at 4 h [2]?
A: Its concentration at 4 h is 380 nM.

Q: Which IC50 (Heparanase) does the source give for `COc1ccc(NC(=O)c2ccc(-c3nc4ccccc4[nH]3)cc2)cc1Br` here?
A: Its IC50 is greater than 15 µM.

Q: With `COc1ccc(C(=O)N(C)c2ccc(-c3nc4ccccc4[nH]3)cc2)cc1Br` as the molecule, how does the IC50 (Heparanase) read?
A: The IC50 was greater than 15 µM.

Q: For `COc1ccc(S(=O)(=O)Nc2ccc(-c3nc4ccccc4[nH]3)cc2)cc1Br`, which IC50 (Heparanase) is on record?
A: The IC50 was greater than 15 µM.

Q: With `CCOc1ccc(C(=O)Nc2ccc(-c3nc4cc(C)c(Cl)cc4[nH]3)cc2)cc1Br` as the molecule, how does the inhibition [3] read?
A: The inhibition was 30%.

Q: Which inhibition [3] does the source give for `CCOc1ccc(C(=O)Nc2ccc(-c3nc4cc(OC)ccc4[nH]3)cc2)cc1Br` here?
A: The inhibition was 73%.

Q: For `COc1ccc(CNc2ccc(-c3nc4ccccc4[nH]3)cc2)cc1Br`, which IC50 (Heparanase) is on record?
A: The IC50 was greater than 15 µM.

Q: With `CCOc1ccc(C(=O)Nc2ccc(-c3nc4cc(Cl)c(Cl)cc4[nH]3)cc2)cc1Br` as the molecule, how does the inhibition [3] read?
A: The inhibition was 30%.

Q: With `COc1ccc(C(=O)Nc2ccc(-c3nc4ccccc4[nH]3)cc2)cc1Cl` as the molecule, how does the IC50 (Heparanase) read?
A: Its IC50 is greater than 15 µM.

Q: For `COc1ccc(C(=O)Nc2ccc(CNc3ccc(Cc4nc5ccccc5[nH]4)cc3)cc2)cc1Br`, which inhibition [4] is on record?
A: Its inhibition is less than 10%.

Q: With `COc1ccc(C(=O)Nc2ccc(-c3nc4ccccc4[nH]3)cc2)cc1Br` as the molecule, how does the concentration at 1 h [1] read?
A: Its concentration at 1 h is 2240 nM.

Q: What about the concentration at 4 h [2] of the same molecule?
A: The concentration at 4 h was 670 nM.

Q: With `CCOc1ccc(C(=O)Nc2ccc(-c3nc4cc(OC)c(OC)cc4[nH]3)cc2)cc1Br` as the molecule, how does the inhibition [3] read?
A: The inhibition was 35%.

Q: With `COc1ccc(C(=O)Nc2cccc(CNc3ccc(-c4nc5ccccc5[nH]4)cc3)c2)cc1Br` as the molecule, how does the inhibition [4] read?
A: Its inhibition is less than 10%.

Q: Which inhibition [4] does the source give for `COc1ccc(C(=O)Nc2ccc(CNc3cccc(-c4nc5ccccc5[nH]4)c3)cc2)cc1Br` here?
A: Its inhibition is less than 10%.

Q: With `COc1ccc(C(=O)Nc2ccc(CNc3ccc(-c4nc5ccccc5[nH]4)cn3)cc2)cc1Br` as the molecule, how does the concentration at 1 h [5] read?
A: The concentration at 1 h was 3800 nM.

Q: And the concentration at 4 h [6]?
A: Its concentration at 4 h is 5500 nM.

Q: With `COc1ccc(C(=O)Nc2ccc(-c3nc4ccccc4[nH]3)cc2)cc1F` as the molecule, how does the IC50 (Heparanase) read?
A: Its IC50 is greater than 15 µM.

Reference: ChEMBL document CHEMBL1147775, “N-(4-{[4-(1H-Benzoimidazol-2-yl)-arylamino]-methyl}-phenyl)-benzamide derivatives as small molecule heparanase inhibitors” (Bioorg Med Chem Lett, 2006)
